Source: patent US20220089592A1, “IMIDAZO[1,2-A]PYRIDINYL DERIVATIVES AS IRAK4 INHIBITORS” (priority 2019, published 2022)

How the values were obtained:
IRAK4 [1] = biological target: T1, IRAK4 (Homo sapiens, UniProt Q9NWZ3); assay: 2-hour 10 μM ATP Biochemical Assay (MesoScale Detection format; IRAK4 phosphorylation of biotin labeled IRAK1 activation loop peptide); conditions: IRAK4 MSD BIOCHEMICAL (10 μM ATP) IC50 (μM), 1 nM IRAK4, 2 hours
T1 sequence (Q9NWZ3 1-460): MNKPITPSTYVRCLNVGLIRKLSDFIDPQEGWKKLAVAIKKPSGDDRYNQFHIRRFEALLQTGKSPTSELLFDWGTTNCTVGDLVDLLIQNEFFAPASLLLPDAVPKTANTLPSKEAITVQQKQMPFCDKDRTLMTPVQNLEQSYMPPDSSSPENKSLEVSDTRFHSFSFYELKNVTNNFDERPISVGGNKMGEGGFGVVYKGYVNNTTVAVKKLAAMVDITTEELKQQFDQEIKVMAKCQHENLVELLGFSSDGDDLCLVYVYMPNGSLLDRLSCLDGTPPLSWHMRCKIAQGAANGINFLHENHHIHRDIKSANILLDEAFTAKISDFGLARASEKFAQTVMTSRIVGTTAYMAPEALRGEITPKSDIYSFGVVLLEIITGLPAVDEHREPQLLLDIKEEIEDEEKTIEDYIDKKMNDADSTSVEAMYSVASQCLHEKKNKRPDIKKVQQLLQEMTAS
Summary of the method: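 Electrochemiluminescent MSD readout: after streptavidin capture, phosphothreonine on the biotin-labelled IRAK1 activation-loop peptide detected by rabbit antibody and Sulfo-Tag secondary. Phosphorylation ran 2 h with 10 μM ATP before EDTA quench.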

IRAK4 [2] = biological target: T1, IRAK4; assay: 2-hour 1 mM ATP IRAK4 Biochemical assay (as above, but with 100 pM IRAK4 and 1 mM ATP); conditions: IRAK4 MSD BIOCHEMICAL (1 mM ATP) IC50 (μM), 100 pM IRAK4, 2 hours
Summary of the method: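 MSD electrochemiluminescence read-out: biotinylated peptide product bound to streptavidin plates, probed with anti-P-Thr rabbit antibody and Sulfo-Tag goat anti-rabbit. Kinase reaction used 1 mM ATP and 100 pM IRAK4 over 2 hours before EDTA quench.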

| SMILES | IC50 (IRAK4 [1]) [µM] | IC50 (IRAK4 [2]) [µM] |
| --- | --- | --- |
| CCOc1cc2nc([C@H](F)[C@@H]3CCOC3)cn2cc1NC(=O)c1cccc(C(F)(F)F)n1 (single isomer, unassigned) [Example 143] | 0.001 | 0.002 |
| CCOc1cc2nc(C3CCOCC3)cn2cc1NC(=O)c1cccc(OC2CCC2)n1 [Example 236, 6-cyclobutoxy-N-(7-ethoxy-2-(tetrahydro-2H-pyran-4-yl)imidazo[1,2-a]pyridin-6-yl)picolinamide] | 0.006 | 0.019 |
| CCOc1cc2nc(C3CCOCC3)cn2cc1NC(=O)c1cccc(C)c1F [Example 214, N-(7-ethoxy-2-(tetrahydro-2H-pyran-4-yl)imidazo[1,2-a]pyridin-6-yl)-2-fluoro-3-methylbenzamide] | 0.003 | 0.007 |
| CCOc1cc2nc(C3CCCC(OC)C3)cn2cc1NC(=O)c1cccc(C(F)F)n1 (centres unmarked) [Example 256, 6-(difluoromethyl)-N-(7-ethoxy-2-(3-methoxycyclohexyl)imidazo[1,2-a]pyridin-6-yl)picolinamide] | 0.001 | 0.001 |
| CCOc1nc2nc(C3CCOCC3)cn2cc1NC(=O)c1cccc(OC)n1 [Example 368, N-(7-ethoxy-2-(tetrahydro-2H-pyran-4-yl)imidazo[1,2-a]pyrimidin-6-yl)-6-methoxypicolinamide] | 0.008 | 0.016 |
| CCOc1cc2nc(C3CCNC3)cn2cc1NC(=O)c1cccc(C(F)(F)F)n1 (centres unmarked) [Example 62, N-(7-ethoxy-2-(pyrrolidin-3-yl)imidazo[1,2-a]pyridin-6-yl)-6-(trifluoromethyl)picolinamide] | 0.001 | 0.001 |
| CCOc1cc2nc(CC3CCOC3)cn2cc1NC(=O)c1ccn(C(C)C)n1 (centres unmarked) [Example 122, N-(7-ethoxy-2-((tetrahydrofuran-3-yl)methyl)imidazo[1,2-a]pyridin-6-yl)-1-isopropyl-1H-pyrazole-3-carboxamide] | 0.008 | 0.003 |
| CCOc1cc2nc(C3CCOCC3)cn2cc1NC(=O)c1cccc(OC2CC2)n1 [Example 361, 6-cyclopropoxy-N-(7-ethoxy-2-(tetrahydro-2H-pyran-4-yl)imidazo[1,2-a]pyridin-6-yl)picolinamide] | 0.002 | 0.01 |
| COc1cc(NC(=O)c2cccc(C(F)F)n2)cn2cc(C3CCOCC3)nc12 [Example 304, 6-(difluoromethyl)-N-(8-methoxy-2-(tetrahydro-2H-pyran-4-yl)imidazo[1,2-a]pyridin-6-yl)picolinamide] | 0.006 | 0.013 |
| COc1nc(NC(=O)c2cccc(C(F)(F)F)n2)cn2cc(C3CCOCC3)nc12 [Example 451, N-(8-methoxy-2-(tetrahydro-2H-pyran-4-yl)imidazo[1,2-a]pyrazin-6-yl)-6-(trifluoromethyl)picolinamide 2,2,2-trifluoroacetate] | 0.029 | 0.066 |
| CCOc1cc2nc(C(=O)N(C)C)cn2cc1NC(=O)c1cccc(C(F)F)n1 [Example 108, 6-(6-(difluoromethyl)picolinamido)-7-ethoxy-N,N-dimethylimidazo[1,2-a]pyridine-2-carboxamide] | 0.011 | 0.025 |
| O=C(Nc1ccc2nc(C3CCOCC3)cn2c1)c1cccc(C(F)F)n1 [Example 356, 6-(difluoromethyl)-N-(2-(tetrahydro-2H-pyran-4-yl)imidazo[1,2-a]pyridin-6-yl)picolinamide] | 0.015 | 0.033 |
| CCOc1cc2nc([C@H]3C[C@@H](O)C3)cn2cc1NC(=O)c1cccc(C(F)F)n1 [Example 97] | 0.002 | 0.002 |
| CCOc1cc2nc(C3CCOCC3)cn2cc1NC(=O)c1ccn(C2CCCC2)n1 [Example 208, 1-cyclopentyl-N-(7-ethoxy-2-(tetrahydro-2H-pyran-4-yl)imidazo[1,2-a]pyridin-6-yl)-1H-pyrazole-3-carboxamide] | 0.002 | 0.008 |
| CCOc1cc2nc(C3CCOCC3)cn2cc1NC(=O)c1cccc(COC)n1 [Example 364, N-(7-ethoxy-2-(tetrahydro-2H-pyran-4-yl)imidazo[1,2-a]pyridin-6-yl)-6-(methoxymethyl)picolinamide] | 0.004 | 0.013 |
| CCOc1cc2nc([C@H]3C[C@H](OC)C3)cn2cc1NC(=O)c1cccc(C(F)F)n1 [Example 114, 6-(difluoromethyl)-N-(7-ethoxy-2-((1r,3r)-3-methoxycyclobutyl)imidazo[1,2-a]pyridin-6-yl)picolinamide] | 0.001 |  |

| SMILES | IC50 (IRAK4 [1]) [µM] | IC50 (IRAK4 [2]) [µM] |
| --- | --- | --- |
| CC(COc1cc2nc(C3CC3)cn2cc1NC(=O)c1cccc(C(F)F)n1)n1ccccc1=O (centres unmarked) [Example 6, N-(2-cyclopropyl-7-(2-(2-oxopyridin-1(2H)-yl)propoxy)imidazo[1,2-a]pyridin-6-yl)-6-(difluoromethyl)picolinamide] | 0.19 |  |
| O=C(Nc1cn2cc(C3CCOCC3)nc2cc1OC1CCC1)c1cccc(C(F)F)n1 [Example 176, N-(7-cyclobutoxy-2-(tetrahydro-2H-pyran-4-yl)imidazo[1,2-a]pyridin-6-yl)-6-(difluoromethyl)picolinamide] | 0.001 |  |
| CCOc1cc2nc(CC)cn2cc1NC(=O)c1cc(C)c(C)cn1 [Example 45, N-(7-ethoxy-2-ethylimidazo[1,2-a]pyridin-6-yl)-4,5-dimethylpicolinamide] | 2.3 |  |
| O=C(Nc1cn2cc(C3CCOCC3)nc2cn1)c1cnn(C(F)F)c1 [Example 162, 1-(difluoromethyl)-N-(2-(tetrahydro-2H-pyran-4-yl)imidazo[1,2-a]pyrazin-6-yl)-1H-pyrazole-4-carboxamide] | 0.37 |  |
| CCOc1cc2nc(CC3CCOC3)cn2cc1NC(=O)c1coc(-c2cnn(C)c2)n1 (single isomer, unassigned) [Example 251, N-(7-ethoxy-2-((tetrahydrofuran-3-yl)methyl)imidazo[1,2-a]pyridin-6-yl)-2-(1-methyl-1H-pyrazol-4-yl)oxazole-4-carboxamide] | 0.002 |  |
| COc1cc(NC(=O)c2cccc(C(F)F)n2)cn2cc(C34CC(C#N)(C3)C4)nc12 [Example 511, N-(2-(3-cyanobicyclo[1.1.1]pentan-1-yl)-8-methoxyimidazo[1,2-a]pyridin-6-yl)-6-(difluoromethyl)picolinamide 2,2,2-trifluoroacetate] | 0.004 |  |
| COc1nc(NC(=O)c2cccc3c2OCC3)cn2cc(C3CCOCC3)nc12 [Example 453, N-(8-methoxy-2-(tetrahydro-2H-pyran-4-yl)imidazo[1,2-a]pyrazin-6-yl)-2,3-dihydrobenzofuran-7-carboxamide] | 0.005 |  |
| COc1cc(NC(=O)c2cccc(C(F)F)n2)cn2cc(C34COC(C3)C4)nc12 [Example 544, N-(2-(2-oxabicyclo[2.1.1]hexan-4-yl)-8-methoxyimidazo[1,2-a]pyridin-6-yl)-6-(difluoromethyl)picolinamide 2,2,2-trifluoroacetate] | 0.011 |  |
| O=C(Nc1cn2cc(C3CCOCC3)nc2cc1F)c1cccc(C(F)F)n1 [Example 293, 6-(difluoromethyl)-N-(7-fluoro-2-(tetrahydro-2H-pyran-4-yl)imidazo[1,2-a]pyridin-6-yl)picolinamide] | 0.031 |  |
| CN(C)CCOc1cc2nc(C3CCOCC3)cn2cc1NC(=O)c1cccc(C(F)F)n1 [Example 148, 6-(difluoromethyl)-N-(7-(2-(dimethylamino)ethoxy)-2-(tetrahydro-2H-pyran-4-yl)imidazo[1,2-a]pyridin-6-yl)picolinamide] | 0.023 |  |
| CCOc1cc2nc(C)c(C)n2cc1NC(=O)c1cccc(C(F)(F)F)n1 [Example 58, N-(7-ethoxy-2,3-dimethylimidazo[1,2-a]pyridin-6-yl)-6-(trifluoromethyl)picolinamide] | 0.11 |  |
| O=C(Nc1ccc2nc(C3CC3)cn2c1)c1cccc(C(F)F)n1 [Example 30, N-(2-cyclopropylimidazo[1,2-a]pyridin-6-yl)-6-(difluoromethyl)picolinamide] | 0.048 |  |
| O=C(Nc1cc(Br)c2nc(C3CCOCC3)cn2c1)c1cccc(C(F)(F)F)n1 [Example 106, N-(8-bromo-2-(tetrahydro-2H-pyran-4-yl)imidazo[1,2-a]pyridin-6-yl)-6-(trifluoromethyl)picolinamide] | 0.027 |  |
| CCOc1cc2nc(C3CCOC(C)(C)C3)cn2cc1NC(=O)c1cccc(C(F)(F)F)n1 (centres unmarked) [Example 113, N-(2-(2,2-dimethyltetrahydro-2H-pyran-4-yl)-7-ethoxyimidazo[1,2-a]pyridin-6-yl)-6-(trifluoromethyl)picolinamide] | 0.001 |  |
| CC[C@@H]1[C@H](F)C(=O)N[C@@H]1COc1cc2nc(C3CC3)cn2cc1NC(=O)c1cccc(C(F)F)n1 [Example 11, N-(2-cyclopropyl-7-(((2S,3S,4S)-3-ethyl-4-fluoro-5-oxopyrrolidin-2-yl)methoxy)imidazo[1,2-a]pyridin-6-yl)-6-(difluoromethyl)picolinamide] | 0.079 |  |
| CCOc1cc2nc(CC)cn2cc1NC(=O)c1cccc2c1OCCN2C [Example 39, N-(7-ethoxy-2-ethylimidazo[1,2-a]pyridin-6-yl)-4-methyl-3,4-dihydro-2H-benzo[b][1,4]oxazine-8-carboxamide] | 0.016 |  |
